Data: article PMC9855104, “Use of High-Dose Nebulized Colistimethate in Patients with Colistin-Only Susceptible Acinetobacter baumannii VAP: Clinical, Pharmacokinetic and Microbiome Features” (Antibiotics, 2023)
“Also recorded” adds a separate entry of the source. Peptide text beside a SMILES is read from it.

Assays:
[1] = Safety and adverse events of colistin nebulization (DHHS-CTCAE version 3.0); assay type: in vivo, ICU patients; conditions: 5 MIU q8, vibrating mesh nebulizer; 134 patients, 1376 days of nebulization
Protocol: Patients received 5 MIU of CMS (Colimycine®, Sanofi, Paris, France) dissolved in 6 mL of saline solution by nebulization over 30 min using a vibrating-mesh nebulizer (Aeroneb Pro®, Aerogen, Galway, […]) every 8 h. Solutions for nebulization were freshly prepared. During aerosol delivery, all patients were sedated and received assisted/controlled mechanical ventilation with a tidal volume of 6–8 mL/kg of predicted body weight and respiratory rates of 12–15 cycles/min. The humidifier was removed and the nebulizer was inserted near the Y-piece connector on the inspiratory arm
VAP, septic shock, and acute kidney injury requiring continuous […] replacement therapy were defined according to current recommendations. VAP was diagnosed in the presence of radiological and clinical signs consisting of a new and persistent infiltrate on the chest radiograph associated with two of the three following criteria: purulent tracheal aspirates, hyperthermia > 38 °C or hypothermia < 36 °C, and peripheral leukocytosis > 10,000/μL or < 1500/μL. […] Safety and adverse events (AE) were determined through the biochemical abnormalities documented in medical records according to the Department of Health and Human Services—Common Terminology Criteria for Adverse Events (DHHS-CTCAE version 3.0) classification. […]

[2] = tested on: Acinetobacter baumannii isolates; experiment: Minimum inhibitory concentration of AB isolates; assay type: cell-based; conditions: median [interquartile range]; values available for 79 patients; Micronaut AST system-based BMD, VITEK 2 AST-N397 card; EUCAST version 11.0
Protocol: AB isolates were identified by using matrix-assisted laser desorption ionization-time of flight mass spectrometry (MALDI-TOF MS). Minimum inhibitory concentrations (MICs) were determined by a Micronaut AST system-based BMD, VITEK 2 AST-N397 card, according to the manufacturer’s instructions. EUCAST (version 11.0, 2021) clinical breakpoints were used to interpret MICs.

[3] = ELF pharmacokinetics of colistin and CMS after nebulization (micro-BAL, LC-MS/MS); assay type: in vivo, ICU patients
Protocol: According to patients’ respiratory status, two micro-bronchoalveolar lavages (BALs) (40 mL of sterile 0.9% saline solution were blindly instilled through a telescopic catheter and immediately aspirated in a trap) were performed at steady state, before nebulization and 1 h after the end. ELF colistin concentration (COLELF) was calculated from BAL concentration (COLBAL) using urea as a dilution marker: COLELF = COLBAL X urea dilution index (plasma urea concentration/BAL urea concentration).
Purification and separation of colistin and CMS were performed using and modifying the Gobin assay. BAL samples were extracted by solid-phase extraction followed by evaporation to dryness and reconstitution in mobile phase. The chromatographic separation was carried out on an AQUITY UPLC C18 column. Polymyxin B was used as internal standard. The detection was performed on a triple quadrupole tandem mass spectrometer using multi-reaction monitoring via an electrospray ionization source with positive ionization mode.

[4] = cited from earlier work
Protocol: Despite the recent introduction of new antibiotics against difficult-to-treat bacteria, colistin is still used in the critically ill setting, especially as part of combination therapies. This drug is a antibiotic; it is administered as intravenous colistimethate (CMS) and then undergoes extensive plasmatic hydrolysis. CMS is mainly metabolized by the renal route apart from the amount that is modified to colistin. This agent is cleared by extra-renal, yet unknown, mechanisms, but its plasmatic levels may increase in the presence of renal failure due to the reduced clearance a ... || From a pharmacokinetic standpoint, CMS nebulization may overcome its negligible ELF penetration after intravenous administration. Although many factors may interfere with the reliability of the detected lung antibiotics concentration, including the diagnostic technique, the binding to inflammatory molecules, and the heterogeneity of lung aeration, it is widely accepted that CMS nebulization is the only strategy to obtain alveolar levels above MIC for mostly Gram-negative MDR pathogens. When treating VAP due to COS bacteria, a correct drug dose and nebulizer strategy should be reco ...

[5] = in vivo; cited from earlier work
From the text: In addition, the observed safety profile may be further improved by correct CMS ...

[6] = tested on: multidrug-resistant / COS Gram-negative VAP; conditions: cited from earlier work
From the text: There is pre-clinical evidence to support vibrating-mesh nebulizers, over jet and ultrasonic ones.

[7] = following 24 h of dosing, vibrating meshes, ten patients with MDR VAP
[8] = 326 patients with COS Gram-negative VAP, aerosolized 2 MIU q 8 h, jet nebulizer

Molecule	Drug-related / pulmonary adverse events of nebulization (in words) [1]	MIC [2]	ELF concentration one hour after nebulization ([3]; median [IQR], 7 patients, after 72 h of nebulized therapy (CMS 5 MIU q8), micro-BAL, urea dilution index, UPLC C18, tandem MS)	ELF colistin concentrations relative to CRAB minimal-inhibitory concentration (in words) ([3]; nebulized CMS 5 MIU q8)	Samples with colistin ELF concentrations above 10 mcg/mL ([4]; 20 patients, 1 MIU nebulization, jet and ultrasonic machines, samples at 1 h after the aerosol) [%]	Trough-predicted colistin ELF level, 3 MII nebulized CMS [4, 7] [µg/mL]	Trough-predicted colistin ELF level, 5 MIU nebulized CMS [4, 7] [µg/mL]	ELF penetration after intravenous administration (in words) [4]	Bronchospasm [5] [%]	Episodes of bronchospasm (in words) [5]	Neuromuscular toxicity [5] [%]	Reduction in the rate of renal failure [5] [%]	Clinical cure rate vs controls treated with intravenous antibiotics (in words) ([6]; 5 MIU q8 h, vibrating plate nebulizer, 44 patients with multidrug-resistant AB and Pseudomonas aeruginosa vs 122 controls)	DAY-14 clinical failure rate (in words) [6, 8]	Mortality (in words) [6, 8]
CC[C@H](C)CCCCC(=O)N[C@@H](CCN)C(=O)N[C@H](C(=O)N[C@@H](CCN)C(=O)N[C@H]1CCNC(=O)[C@H]([C@@H](C)O)NC(=O)[C@H](CCN)NC(=O)[C@H](CCN)NC(=O)[C@H](CC(C)C)NC(=O)[C@@H](CC(C)C)NC(=O)[C@H](CCN)NC1=O)[C@@H](C)O [colistin] (HELM PEPTIDE1{[CC[C@H](C)CCCCC(=O)[*:2]].[Dab].T.[Dab].[Dab].[Dab].[dL].L.[Dab].[Dab].T}$PEPTIDE1,PEPTIDE1,5:R3-11:R2$$$V2.0)	did not observe any; also recorded: without observing any	1 [0.5–1] mcg/mL	121.7 [40.1–143.1] mcg/mL	far above	25	120.4	200.7	minimal	–	–	–	–	–	–	–
colistimethate [CMS]	did not observe any	–	–	–	–	–	–	negligible	2	did not report any	3	33	similar	significantly lower	without affecting
